Where no end group is shown, it is not given here.
How the values were obtained:
Format in all cases: cell-based
[1] = tested on: rat microvascular coronary endothelial cells; assay: cGMP production stimulated by the Alzheimer protein β/A4 in endothelial cell cultures (RMCECs), radioimmunoassay
Description: (§1) Action of the compounds of the formula (I) on cGMP production stimulated by the Alzheimer protein β/A4 in endothelial cell cultures
(§2) Bovine aortic endothelial cell cultures (BAECs=bovine aortic endothelial cells), […] coronary rat endothelial cell cultures (RMCECs=rat microvascular coronary endothelial cells) and human umbilical vein endothelial cell cultures (HUVECs=human umbilical vein endothelial cells)
(§3) Determination of the effect of bradykinin antagonists of the formula (I) on the production of cGMP stimulated by administration of 0.1 and 1 μmol/l of the Alzheimer protein β/A4 in endothelial cell cultures of various species and organs.
(§4) In endothelial cells, bradykinin leads to an increase in the production of cGMP, which is determined by means of a radioimmunoassay. Increase in the formation of cGMP by bradykinin is an indicator of a release of NO (nitrogen monoxide) from endothelial cells.
(§5) Stimulation of cGMP production by βA(1-40) and inhibitory effect of the bradykinin antagonist HOE 140 (10^-7 mol/l) in 3 different types of endothelial cells: […]

[2] = tested on: human umbilical vein endothelial cells; assay: cGMP production stimulated by the Alzheimer protein β/A4 in endothelial cell cultures (HUVECs), radioimmunoassay
Description: as §1, §2, §3, §4, §5

[3] = tested on: bovine aortic endothelial cells; assay: cGMP production stimulated by the Alzheimer protein β/A4 in endothelial cell cultures (BAECs), radioimmunoassay
Description: as §1, §2, §3, §4, §5

[4] = simultaneous incubation with HOE 140 0.1 μmol/l
[5] = stimulated with BK 10^-8 mol/l + HOE 140 (10^-7 mol/l)
[6] = stimulated with βA (1-40) 10^-6 mol/l + HOE 140 (10^-7 mol/l)
[7] = stimulated with βA (1-40) 10^-7 mol/l + HOE 140 (10^-7 mol/l)

RPPGFSPFR [BK, bradykinin] was tested, and the cGMP production ([1]; BK 10^-8 mol/l alone) was 1.13 ± 0.2 pmol/mg of protein, the cGMP production ([2]; BK 10^-8 mol/l alone) was 11.46 ± 2 pmol/mg of protein and the cGMP production ([3]; BK 10^-8 mol/l alone) was 8.8 ± 0.34 pmol/mg of protein.

For “βA (1-40): Alzheimer protein amyloid (β/A4), used to stimulate cGMP production [reference compound]”, the cGMP production ([1]; βA (1-40) 10^-6 mol/l alone) was 0.74 ± 0.09 pmol/mg of protein, the cGMP production ([1]; βA (1-40) 10^-7 mol/l alone) was 0.59 ± 0.07 pmol/mg of protein and the cGMP production ([2]; βA (1-40) 10^-6 mol/l alone) was 15.3 ± 1.9 pmol/mg of protein. For the same compound, the cGMP production ([2]; βA (1-40) 10^-7 mol/l alone) was 14.07 ± 1.6 pmol/mg of protein, the cGMP production ([3]; βA (1-40) 10^-6 mol/l alone) was 4.6 ± 0.13 pmol/mg of protein and the cGMP production ([3]; βA (1-40) 10^-7 mol/l alone) was 5.9 ± 0.23 pmol/mg of protein.

`N=C(N)NCCC[C@@H](N)C(=O)N[C@@H](CCCNC(=N)N)C(=O)N1CCC[C@H]1C(=O)N1C[C@H](O)C[C@H]1C(=O)NCC(=O)N[C@@H](Cc1cccs1)C(=O)N[C@@H](CO)C(=O)N1Cc2ccccc2C[C@@H]1C(=O)N1[C@H](C(=O)N[C@@H](CCCNC(=N)N)C(=O)O)C[C@@H]2CCCC[C@@H]21` [HOE 140, H-D-Arg-Arg-Pro-Hyp-Gly-Thi-Ser-D-Tic-Oic-Arg-OH] was tested, and the “effect on the stimulation of the production of cGMP induced by the β/A4 protein” value (from here on “effect on the stimulation”) [1, 4] was “prevents the stimulation of the production of cGMP”, the cGMP production [1, 5] was 0.22 ± 0.02 pmol/mg of protein and the cGMP production [1, 6] was 0.32 ± 0.05 pmol/mg of protein. For the same compound, the cGMP production [1, 7] was 0.34 ± 0.02 pmol/mg of protein, the “effect on the stimulation” value [2, 4] was “prevents the stimulation of the production of cGMP” and the cGMP production [2, 5] was 3.45 ± 0.45 pmol/mg of protein. The cGMP production [2, 6] was 5.3 pmol/mg of protein, the cGMP production [2, 7] was 4.0 pmol/mg of protein and the “effect on the stimulation” value [3, 4] was “prevents the stimulation of the production of cGMP”. For the same compound, the cGMP production [3, 5] was 2.2 ± 0.2 pmol/mg of protein, the cGMP production [3, 6] was 2.2 ± 0.2 pmol/mg of protein and the cGMP production [3, 7] was 2.2 ± 0.28 pmol/mg of protein.

Source: patent US6245736A, “Use of peptidic bradykinin antagonists for the treatment and prevention of Alzheimer's disease” (Aventis Pharma Deutschland GmbH, priority 1996, dated 2001)
